# Test results from ChEMBL document CHEMBL4304773, “Nitroimidazole-containing compounds and their antibacterial and antitubercular activities” (2019).
# Key:
# Assay type in all cases: functional
# Escherichia coli [1] = assay: Antibacterial activity against Escherichia coli
# Candida albicans = assay: Antifungal activity against Candida albicans
# Staphylococcus aureus [2] = assay: Antibacterial activity against Staphylococcus aureus
# Bacillus subtilis = assay: Antibacterial activity against Bacillus subtilis
# Pseudomonas aeruginosa [3] = assay: Antibacterial activity against Pseudomonas aeruginosa
# Klebsiella pneumoniae = assay: Antibacterial activity against Klebsiella pneumoniae after 24 hrs
# Enterococcus faecalis = assay: Antibacterial activity against Enterococcus faecalis after 24 hrs
# Pseudomonas aeruginosa [4] = assay: Antibacterial activity against Pseudomonas aeruginosa ATCC 27853 after 24 hrs; conditions: ATCC 27853, 24 h
# Pseudomonas aeruginosa [5] = assay: Antibacterial activity against Pseudomonas aeruginosa after 24 hrs
# Staphylococcus aureus [6] = assay: Antibacterial activity against Staphylococcus aureus ATCC 29213 after 24 hrs; conditions: ATCC 29213, 24 h
# Staphylococcus aureus [7] = assay: Antibacterial activity against Staphylococcus aureus ATCC 25923 after 24 hrs; conditions: ATCC 25923, 24 h
# Staphylococcus aureus [8] = assay: Antibacterial activity against methicillin-resistant Staphylococcus aureus after 24 hrs
# Escherichia coli [9] = assay: Antibacterial activity against Escherichia coli ATCC 25922 after 24 hrs; conditions: ATCC 25922, 24 h
Structure (SMILES),MIC (Escherichia coli [1]),MIC (Candida albicans),MIC (Staphylococcus aureus [2]),MIC (Bacillus subtilis),MIC (Pseudomonas aeruginosa [3]),MIC (Klebsiella pneumoniae),MIC (Enterococcus faecalis),MIC (Pseudomonas aeruginosa [4]),MIC (Pseudomonas aeruginosa [5]),MIC (Staphylococcus aureus [6]),MIC (Staphylococcus aureus [7]),MIC (Staphylococcus aureus [8]),MIC (Escherichia coli [9])
CC(=O)N1N=C(Cn2c([N+](=O)[O-])cnc2C)OC1(C)c1ccc(C)cc1 (configuration not stated),0.25 to 0.5 µg/mL,0.25 to 0.5 µg/mL,0.25 to 0.5 µg/mL,0.25 to 0.5 µg/mL,0.25 to 0.5 µg/mL,–,–,–,–,–,–,–,–
COc1ccc(C2OC(Cn3c([N+](=O)[O-])cnc3C)=NN2C(C)=O)cc1 (configuration not stated),0.25 to 0.5 µg/mL,0.25 to 0.5 µg/mL,0.25 to 0.5 µg/mL,0.25 to 0.5 µg/mL,0.25 to 0.5 µg/mL,–,–,–,–,–,–,–,–
CCOc1c(OC)cc(/C=C(\C#N)n2cc([N+](=O)[O-])nc2C)c2c1CN1CCc3cc4c(cc3C1C2)OCO4 (configuration not stated),–,–,–,–,–,3 to 1020 µM,3 to 1020 µM,3 to 1020 µM,3 to 1020 µM,3 to 1020 µM,3 to 1020 µM,3 to 1020 µM,3 to 1020 µM
CC(=O)N1N=C(Cn2c([N+](=O)[O-])cnc2C)OC1(C)c1ccccc1 (configuration not stated),0.25 to 0.5 µg/mL,0.25 to 0.5 µg/mL,0.25 to 0.5 µg/mL,0.25 to 0.5 µg/mL,0.25 to 0.5 µg/mL,–,–,–,–,–,–,–,–
CC(=O)N1N=C(Cn2c([N+](=O)[O-])cnc2C)OC1c1ccc(Cl)cc1 (configuration not stated),0.25 to 0.5 µg/mL,0.25 to 0.5 µg/mL,0.25 to 0.5 µg/mL,0.25 to 0.5 µg/mL,0.25 to 0.5 µg/mL,–,–,–,–,–,–,–,–
OC(Cn1cncn1)(Cn1cncn1)c1ccc(F)cc1F [FLUCONAZOLE],0.25 µg/mL,0.25 µg/mL,0.25 µg/mL,0.25 µg/mL,0.25 µg/mL,–,–,–,–,–,–,–,–
CCCCCCCCCCOc1c(OC)cc(/C=C(\C#N)n2cc([N+](=O)[O-])nc2C)c2c1CN1CCc3cc4c(cc3C1C2)OCO4 (configuration not stated),–,–,–,–,–,3 to 1020 µM,3 to 1020 µM,3 to 1020 µM,3 to 1020 µM,3 to 1020 µM,3 to 1020 µM,3 to 1020 µM,3 to 1020 µM
C=CCOc1c(OC)cc(/C=C(\C#N)n2cc([N+](=O)[O-])nc2C)c2c1CN1CCc3cc4c(cc3C1C2)OCO4 (configuration not stated),–,–,–,–,–,3 to 1020 µM,3 to 1020 µM,3 to 1020 µM,3 to 1020 µM,3 to 1020 µM,3 to 1020 µM,3 to 1020 µM,3 to 1020 µM
COc1cc(/C=C(\C#N)n2cc([N+](=O)[O-])nc2C)c2c(c1OCc1ccccc1Cl)CN1CCc3cc4c(cc3C1C2)OCO4 (configuration not stated),–,–,–,–,–,3 to 1020 µM,3 to 1020 µM,3 to 1020 µM,3 to 1020 µM,3 to 1020 µM,3 to 1020 µM,3 to 1020 µM,3 to 1020 µM
C#CCOc1c(OC)cc(/C=C(\C#N)n2cc([N+](=O)[O-])nc2C)c2c1CN1CCc3cc4c(cc3C1C2)OCO4 (configuration not stated),–,–,–,–,–,3 to 1020 µM,3 to 1020 µM,3 to 1020 µM,3 to 1020 µM,3 to 1020 µM,3 to 1020 µM,3 to 1020 µM,3 to 1020 µM
CC(=O)N1N=C(Cn2c([N+](=O)[O-])cnc2C)OC1(C)c1ccc([N+](=O)[O-])cc1 (configuration not stated),0.25 to 0.5 µg/mL,0.25 to 0.5 µg/mL,0.25 to 0.5 µg/mL,0.25 to 0.5 µg/mL,0.25 to 0.5 µg/mL,–,–,–,–,–,–,–,–
CCCCOc1c(OC)cc(/C=C(\C#N)n2cc([N+](=O)[O-])nc2C)c2c1CN1CCc3cc4c(cc3C1C2)OCO4 (configuration not stated),–,–,–,–,–,3 to 1020 µM,3 to 1020 µM,3 to 1020 µM,3 to 1020 µM,3 to 1020 µM,3 to 1020 µM,3 to 1020 µM,3 to 1020 µM
COc1cc(/C=C(\C#N)n2cc([N+](=O)[O-])nc2C)c2c(c1OCc1ccc([N+](=O)[O-])cc1)CN1CCc3cc4c(cc3C1C2)OCO4 (configuration not stated),–,–,–,–,–,3 to 1020 µM,3 to 1020 µM,3 to 1020 µM,3 to 1020 µM,3 to 1020 µM,3 to 1020 µM,3 to 1020 µM,3 to 1020 µM
Cc1nc([N+](=O)[O-])cn1Cc1nn(CN2CCNCC2)c(=S)o1,–,–,184 µM,–,–,–,–,–,–,–,–,–,–
COc1ccc2cc3[n+](cc2c1OC)CCc1cc2c(cc1-3)OCO2 [BERBERINE],–,–,–,–,–,11 to 688 µM,11 to 688 µM,11 to 688 µM,11 to 688 µM,11 to 688 µM,11 to 688 µM,11 to 688 µM,11 to 688 µM
COc1ccc(C2(C)OC(Cn3c([N+](=O)[O-])cnc3C)=NN2C(C)=O)cc1 (configuration not stated),0.25 to 0.5 µg/mL,0.25 to 0.5 µg/mL,0.25 to 0.5 µg/mL,0.25 to 0.5 µg/mL,0.25 to 0.5 µg/mL,–,–,–,–,–,–,–,–
NC[C@H]1O[C@H](O[C@H]2[C@H](O)[C@@H](O[C@H]3O[C@H](CO)[C@@H](O)[C@H](N)[C@H]3O)[C@H](N)C[C@@H]2N)[C@H](O)[C@@H](O)[C@@H]1O [KANAMYCIN],1.56 to 3.12 µg/mL,–,1.56 to 3.12 µg/mL,1.56 to 3.12 µg/mL,1.56 to 3.12 µg/mL,–,–,–,–,–,–,–,–
CC(=O)N1N=C(Cn2c([N+](=O)[O-])cnc2C)OC1(C)c1ccc(Br)cc1 (configuration not stated),0.25 to 0.5 µg/mL,0.25 to 0.5 µg/mL,0.25 to 0.5 µg/mL,0.25 to 0.5 µg/mL,0.25 to 0.5 µg/mL,–,–,–,–,–,–,–,–
COc1cc(/C=C(\C#N)n2cc([N+](=O)[O-])nc2C)c2c(c1OCCO)CN1CCc3cc4c(cc3C1C2)OCO4 (configuration not stated),–,–,–,–,–,3 to 1020 µM,3 to 1020 µM,3 to 1020 µM,3 to 1020 µM,3 to 1020 µM,3 to 1020 µM,3 to 1020 µM,3 to 1020 µM
CCCCCCCCOc1c(OC)cc(/C=C(\C#N)n2cc([N+](=O)[O-])nc2C)c2c1CN1CCc3cc4c(cc3C1C2)OCO4 (configuration not stated),–,–,–,–,–,3 to 1020 µM,3 to 1020 µM,3 to 1020 µM,3 to 1020 µM,3 to 1020 µM,3 to 1020 µM,3 to 1020 µM,3 to 1020 µM
COc1cc(/C=C(\C#N)n2cc([N+](=O)[O-])nc2C)c2c(c1OCC(C)=O)CN1CCc3cc4c(cc3C1C2)OCO4 (configuration not stated),–,–,–,–,–,3 to 1020 µM,3 to 1020 µM,3 to 1020 µM,3 to 1020 µM,3 to 1020 µM,3 to 1020 µM,3 to 1020 µM,3 to 1020 µM
COc1cc(/C=C(\C#N)n2cc([N+](=O)[O-])nc2C)c2c(c1OCc1ccc(Cl)cc1)CN1CCc3cc4c(cc3C1C2)OCO4 (configuration not stated),–,–,–,–,–,3 to 1020 µM,3 to 1020 µM,3 to 1020 µM,3 to 1020 µM,3 to 1020 µM,3 to 1020 µM,3 to 1020 µM,3 to 1020 µM
COc1cc(/C=C(\C#N)n2cc([N+](=O)[O-])nc2C)c2c(c1OCc1cccc(Cl)c1)CN1CCc3cc4c(cc3C1C2)OCO4 (configuration not stated),–,–,–,–,–,3 to 1020 µM,3 to 1020 µM,3 to 1020 µM,3 to 1020 µM,3 to 1020 µM,3 to 1020 µM,3 to 1020 µM,3 to 1020 µM
COc1cc(/C=C(\C#N)n2cc([N+](=O)[O-])nc2C)c2c(c1OCc1ccc(Cl)cc1Cl)CN1CCc3cc4c(cc3C1C2)OCO4 (configuration not stated),–,–,–,–,–,3 to 1020 µM,3 to 1020 µM,3 to 1020 µM,3 to 1020 µM,3 to 1020 µM,3 to 1020 µM,3 to 1020 µM,3 to 1020 µM
NC(=O)N/N=C/c1ccc([N+](=O)[O-])o1 [NITROFURAZONE],0.25 to 0.5 µg/mL,0.25 to 0.5 µg/mL,0.25 to 0.5 µg/mL,0.25 to 0.5 µg/mL,0.25 to 0.5 µg/mL,–,–,–,–,–,–,–,–
COc1ccccc1Cc1nnc(Cn2c([N+](=O)[O-])cnc2C)o1,3.12 to 4.56 µg/mL,–,3.12 to 4.56 µg/mL,3.12 to 4.56 µg/mL,3.12 to 4.56 µg/mL,–,–,–,–,–,–,–,–
COc1cc(/C=C(\C#N)n2cc([N+](=O)[O-])nc2C)c2c(c1OCC#N)CN1CCc3cc4c(cc3C1C2)OCO4 (configuration not stated),–,–,–,–,–,3 to 1020 µM,3 to 1020 µM,3 to 1020 µM,3 to 1020 µM,3 to 1020 µM,3 to 1020 µM,3 to 1020 µM,3 to 1020 µM
CCCCCCOc1c(OC)cc(/C=C(\C#N)n2cc([N+](=O)[O-])nc2C)c2c1CN1CCc3cc4c(cc3C1C2)OCO4 (configuration not stated),–,–,–,–,–,3 to 1020 µM,3 to 1020 µM,3 to 1020 µM,3 to 1020 µM,3 to 1020 µM,3 to 1020 µM,3 to 1020 µM,3 to 1020 µM
